Results as given in patent EP0428132A1, “Pradimicin derivatives” (Bristol-Myers Squibb Company, priority 1989, dated 1991).
Converted amounts (≈) assume the structure as drawn.

Assays:
[1] = test system: Trichophyton mentagrophytes #4329; assay: In vitro antifungal activity, serial agar dilution method (Table 1); format: cell-based; settings: Sabouraud dextrose agar (pH 7.0), 28°C for 40 hours; for MIC: Trichophyton mentagrophytes
Description: (§1) The inoculum size was adjusted to 10⁶ cells/ml, and a volume of approximately 0.003 ml of fungal suspension was applied to the surface of the antibiotic containing agar plates with a multiinoculator. After incubation, the lowest concentration of antibiotic causing virtually complete inhibition of fungal growth was determined as the minimum inhibitory concentration (MIC). Table 1. [table]

[2] = test system: Petriellidium boydii IFO8078; assay: as above; format: cell-based; settings: Sabouraud dextrose agar (pH 7.0), 28°C for 40 hours; for MIC: Scedosporium boydii, IFO8078
Description: as §1

[3] = test system: Cryptococcus neoformans D49; assay: as above; format: cell-based; settings: for MIC: Cryptococcus neoformans, D49, 40 h, pH 7, read-out: MIC, Cryptococcus neoformans D49
Description: as §1

[4] = test system: Blastomyces dermatidis D40; assay: as above; format: cell-based; settings: for MIC: Blastomyces, D40, 40 h, pH 7, read-out: MIC, Blastomyces dermatidis D40
Description: as §1

[5] = test system: Mucor spinosus IFO5317; assay: as above; format: cell-based; settings: Sabouraud dextrose agar (pH 7.0), 28°C for 40 hours; for MIC: Mucor spinosus, IFO5317
Description: as §1

[6] = test system: Candida albicans IAM4888; assay: as above; format: cell-based; settings: Sabouraud dextrose agar (pH 7.0), 28°C for 40 hours; for MIC: Candida albicans, IAM4888
Description: as §1

[7] = test system: Fusarium moniliforme A2284; assay: as above; format: cell-based; settings: Sabouraud dextrose agar (pH 7.0), 28°C for 40 hours; for MIC: Fusarium verticillioides, A2284
Description: as §1

[8] = test system: Sprotricosis schenckii IFO8158; assay: as above; format: cell-based; settings: for MIC: 40 h, pH 7, read-out: MIC, Sprotricosis schenckii IFO8158
Description: as §1

[9] = test system: Candida albicans A9540; assay: as above; format: cell-based; settings: Sabouraud dextrose agar (pH 7.0), 28°C for 40 hours; for MIC: Candida albicans, A9540
Description: as §1

[10] = test system: Aspergillus fumigatus IAM2530; assay: as above; format: cell-based; settings: Sabouraud dextrose agar (pH 7.0), 28°C for 40 hours; for MIC: Aspergillus fumigatus, IAM2530
Description: as §1

[11] = test system: Cryptococcus neoformans IAM4514; assay: as above; format: cell-based; settings: Sabouraud dextrose agar (pH 7.0), 28°C for 40 hours; for MIC: Cryptococcus neoformans, IAM4514
Description: as §1

[12] = test system: Trichophyton mentagrophytes D155; assay: as above; format: cell-based; settings: Sabouraud dextrose agar (pH 7.0), 28°C for 40 hours; for MIC: Trichophyton mentagrophytes, D155
Description: as §1

[13] = test system: Aspergillus fumigatus IAM2034; assay: as above; format: cell-based; settings: Sabouraud dextrose agar (pH 7.0), 28°C for 40 hours; for MIC: Aspergillus fumigatus, IAM2034
Description: as §1

[14] = test system: FA21436; assay: as above; format: cell-based, Asoergukkys flavus; settings: for MIC: 40 h, pH 7, read-out: MIC, Asoergukkys flavus FA21436
Description: as §1

[15] = test system: Candida tropicalis A25812; assay: In vitro antifungal activity, serial agar dilution method (Table 1a); format: cell-based; settings: A25812, YM agar (pH 7.0, Difco), 30°C for 2 days (yeast) or 4 days (filamentous fungi), read-out: MICs, Candida tropicalis A25812
Description: as §1, with “(MIC).” for “(MIC). Table 1. [table]”

[16] = test system: Saccharomyces cerevisiae A25803; assay: as above; format: cell-based; settings: YM agar (pH 7.0, Difco), 30°C for 2 days (yeast) or 4 days (filamentous fungi), read-out: MICs, Saccharomyces cerevisiae A25803
Description: as §1, with “(MIC).” for “(MIC). Table 1. [table]”

[17] = test system: Candida tropicalis A25809; assay: as above; format: cell-based; settings: YM agar (pH 7.0, Difco), 30°C for 2 days (yeast) or 4 days (filamentous fungi), read-out: MICs, Candida tropicalis A25809
Description: as §1, with “(MIC).” for “(MIC). Table 1. [table]”

[18] = test system: Candida pseudotropicalis A25802; assay: as above; format: cell-based; settings: Kluyveromyces marxianus, YM agar (pH 7.0, Difco), 30°C for 2 days (yeast) or 4 days (filamentous fungi), read-out: MICs, Candida pseudotropicalis A25802
Description: as §1, with “(MIC).” for “(MIC). Table 1. [table]”

[19] = test system: Candida albicans A9540; assay: as above; format: cell-based; settings: A9540, YM agar (pH 7.0, Difco), 30°C for 2 days (yeast) or 4 days (filamentous fungi), read-out: MICs, Candida albicans A9540
Description: as §1, with “(MIC).” for “(MIC). Table 1. [table]”

[20] = test system: Candida albicans A25578; assay: as above; format: cell-based; settings: A25578, YM agar (pH 7.0, Difco), 30°C for 2 days (yeast) or 4 days (filamentous fungi), read-out: MICs, Candida albicans A25578
Description: as §1, with “(MIC).” for “(MIC). Table 1. [table]”

[21] = test system: Cryptococcus neoformans A15053; assay: as above; format: cell-based; settings: A15053, YM agar (pH 7.0, Difco), 30°C for 2 days (yeast) or 4 days (filamentous fungi), read-out: MICs, Cryptococcus neoformans A15053
Description: as §1, with “(MIC).” for “(MIC). Table 1. [table]”

[22] = test system: Microsporum canis WW10218; assay: as above; format: cell-based; settings: WW10218, pH 7, read-out: MICs, Microsporum canis WW10218
Description: as §1, with “(MIC).” for “(MIC). Table 1. [table]”

[23] = test system: Trichophyton rubrum A26761; assay: as above; format: cell-based; settings: A26761, pH 7, read-out: MICs, Trichophyton rubrum A26761
Description: as §1, with “(MIC).” for “(MIC). Table 1. [table]”

[24] = test system: Trichophyton mentagrophytes A26771; assay: as above; format: cell-based; settings: A26771, YM agar (pH 7.0, Difco), 30°C for 2 days (yeast) or 4 days (filamentous fungi), read-out: MICs, Trichophyton mentagrophytes A26771
Description: as §1, with “(MIC).” for “(MIC). Table 1. [table]”

[25] = test system: Candida paratropicalis A25825; assay: as above; format: cell-based; settings: YM agar (pH 7.0, Difco); 30°C for 2 days (yeast) or 4 days (filamentous fungi); read-out: MICs, Candida paratropicalis A25825
Description: as §1, with “(MIC).” for “(MIC). Table 1. [table]”

[26] = test system: Microsporum gypseum WW1107; assay: as above; format: cell-based; settings: Nannizzia gypsea, YM agar (pH 7.0, Difco), 30°C for 2 days (yeast) or 4 days (filamentous fungi), read-out: MICs, Microsporum gypseum WW1107
Description: as §1, with “(MIC).” for “(MIC). Table 1. [table]”

[27] = Water solubility, protocol I (PBS, HPLC); format: physicochemical; settings: Method I: PBS without CaCl₂ and MgCl₂.6H₂O
Description: The supernatant (2 µL) was analyzed by HPLC using the conditions specified for each compound in the Experimental Section. […] When not soluble, an additional amount of PBS (x µL) was added, sonicated, and centrifuged. When visibly soluble, the solution (2 µL) was injected to HPLC and the peak area was used for the known concentration of the sample.

[28] = Sabouraud dextrose agar (pH 7.0), 28°C for 40 hours

| Molecule | MIC [1] [µg/mL] | MIC [2] [µg/mL] | MIC [3] [µg/mL] | MIC [4] [µg/mL] | MIC [5] [µg/mL] | MIC [6] [µg/mL] | MIC [7] [µg/mL] | MIC [8] [µg/mL] | MIC [9] [µg/mL] | MIC [10] [µg/mL] | MIC [11] [µg/mL] | MIC [12] [µg/mL] | MIC [13] [µg/mL] | MIC [14] [µg/mL] | MIC [15] [µg/mL] | MIC [16] [µg/mL] | MIC [17] [µg/mL] | MIC [18] [µg/mL] | MIC [19] [µg/mL] | MIC [20] [µg/mL] | further results |
| --- | --- | --- | --- | --- | --- | --- | --- | --- | --- | --- | --- | --- | --- | --- | --- | --- | --- | --- | --- | --- | --- |
| COc1cc(O)c2c(c1)C(=O)c1c(cc3c(c1O)-c1c(cc(C)c(C(=O)N[C@H](C)C(=O)O)c1O)[C@H](O[C@@H]1O[C@H](C)[C@H](N(C)C/C=C/C(=O)O)[C@H](O[C@@H]4OC[C@@H](O)[C@H](O)[C@H]4O)[C@H]1O)[C@H]3O)C2=O [Ex. 13, N-(trans-3-carboxy-2-propenyl) pradimicin A] | > 100 | > 100 | 50 (≈ 54.1 µM) | > 100 | > 100 | 50 (≈ 54.1 µM) | > 100 | 100 (≈ 108 µM) | 100 (≈ 108 µM) | 100 (≈ 108 µM) | 25 (≈ 27 µM) | > 100 | 100 (≈ 108 µM) | 100 (≈ 108 µM) |  |  |  |  |  |  |  |
| COc1cc(O)c2c(c1)C(=O)c1c(cc3c(c1O)-c1c(cc(C)c(C(=O)N[C@H](C)C(=O)O)c1O)[C@H](O[C@@H]1O[C@H](C)[C@H](N(C)C(=O)CN(C)C)[C@H](O[C@@H]4OC[C@@H](O)[C@H](O)[C@H]4O)[C@H]1O)[C@H]3O)C2=O [Ex. 16, N-(N,N-Dimethylglycyl) pradimicin A] | 6.3 (≈ 6.8 µM) | > 50 | 3.4 (≈ 3.67 µM) | 50 (≈ 54 µM) | > 50 | 6.3 (≈ 6.8 µM) | > 50 | 6.3 (≈ 6.8 µM) | 6.3 (≈ 6.8 µM) | 12.5 (≈ 13.5 µM) | 3.1 (≈ 3.35 µM) | 6.3 (≈ 6.8 µM) | 12.5 (≈ 13.5 µM) | > 50 |  |  |  |  |  |  |  |
| COc1cc(O)c2c(c1)C(=O)c1c(cc3c(c1O)-c1c(cc(C)c(C(=O)N[C@H](C)C(=O)O)c1O)[C@H](O[C@@H]1O[C@H](C)[C@H](N(C)C(=O)NS(=O)(=O)c4ccc(C)cc4)[C@H](O)[C@H]1O)[C@H]3O)C2=O [Ex. 19, N-(p-toluenesulfonylcarbamyl) pradimicin B] |  |  |  |  |  |  |  |  |  |  |  |  |  |  | 12.5 (≈ 13.8 µM) | 3.2 (≈ 3.53 µM) | 6.3 (≈ 6.95 µM) | 3.2 (≈ 3.53 µM) | 12.5 (≈ 13.8 µM) | 12.5 (≈ 13.8 µM) | MIC [21]: 6.3 µg/mL (≈ 6.95 µM); MIC [22]: 12.5 µg/mL (≈ 13.8 µM); MIC [23]: 50 µg/mL (≈ 55.2 µM); MIC [24]: 50 µg/mL (≈ 55.2 µM); MIC [25]: 25 µg/mL (≈ 27.6 µM); MIC [26]: 50 µg/mL (≈ 55.2 µM) |
| N-(sodiosulfomethyl) pradimicin A [Ex. 8] |  |  |  |  |  |  |  |  |  |  |  |  |  |  |  |  |  |  |  |  | MIC, Trichophyton mentagrophytes #4329 [1]: 3.1 µg/mL; MIC, Petriellidium boydii IFO8078 [2]: 6.3 µg/mL; MIC, Cryptococcus neoformans D49 [3, 28]: 0.8 µg/mL; MIC, Blastomyces dermatidis D40 [4, 28]: 1.6 µg/mL; MIC, Mucor spinosus IFO5317 [5]: > 50.0 µg/mL; Partial Inhibition, Mucor spinosus IFO5317 ([5]; value in parentheses = Partial Inhibition): 6.3 µg/mL; MIC, Candida albicans IAM4888 [6]: 3.1 µg/mL; MIC, Fusarium moniliforme A2284 [7]: 3.1 µg/mL; MIC, Sprotricosis schenckii IFO8158 [8, 28]: 1.6 µg/mL; MIC, Candida albicans A9540 [9]: 6.3 µg/mL; MIC, Aspergillus fumigatus IAM2530 [10]: 1.6 µg/mL; MIC, Cryptococcus neoformans IAM4514 [11]: 0.8 µg/mL; MIC, Trichophyton mentagrophytes D155 [12]: 6.3 µg/mL; MIC, Aspergillus fumigatus IAM2034 [13]: 3.1 µg/mL; MIC, Asoergukkys flavus FA21436 [14, 28]: 6.3 µg/mL |
| CCOC(=O)CN(C)[C@@H]1[C@H](O)[C@@H](O)[C@H](O[C@H]2c3cc(C)c(C(=O)N[C@H](C)C(=O)O)c(O)c3-c3c(cc4c(c3O)C(=O)c3cc(OC)cc(O)c3C4=O)[C@@H]2O)O[C@@H]1C [Ex. 6, N-(ethoxycarbonylmethyl) pradimicin B] |  |  |  |  |  |  |  |  |  |  |  |  |  |  | 3.2 (≈ 4.03 µM) | 0.8 (≈ 1.01 µM) | 1.6 (≈ 2.01 µM) | 1.6 (≈ 2.01 µM) | 6.3 (≈ 7.93 µM) | 3.2 (≈ 4.03 µM) | solubility [27]: > 4000 µg/mL; MIC [21]: 1.6 µg/mL (≈ 2.01 µM); MIC [22]: 1.6 µg/mL (≈ 2.01 µM); MIC [23]: 6.3 µg/mL (≈ 7.93 µM); MIC [24]: 6.3 µg/mL (≈ 7.93 µM); MIC [25]: 6.3 µg/mL (≈ 7.93 µM); MIC [26]: 12.5 µg/mL (≈ 15.7 µM) |
